Laboratory results as given in patent US20250120967A1, “TYROSINE KINASES INHIBITORS AND USES THEREOF” (GREAT NOVEL THERAPEUTICS BIOTECH & MEDICALS CORPORATION, priority 2023, published 2025).
Read-outs that look alike come from different tables or passages of the source.

How the values were obtained:
Assay in all cases: Tyrosine kinase inhibition assay
Format in all cases: biochemical
LTK (TYK1) = LTK (TYK1) (Homo sapiens, UniProt P29376); conditions: single concentration 1.0 μM, read-out: percent inhibition
Description: (§1) Tyrosine kinase inhibition assays were performed at ThermoFisher Life Technologies (Madison, WI, USA) using standard protocols (SelectScreen Biochemical Profiling Service, Thermo Fisher Scientific). ATP concentrations used were at the apparent Km. Test compounds were screened in 1% dimethylsulffoxide (DMSO) (final concentration) in the well. For 10-point titrations, 3-fold serial dilutions were conducted from the starting concentration of […]. All Peptide/Kinase Mixtures were diluted to a 2× working concentration in the appropriate Kinase Buffer. All ATP Solutions were diluted to a 4× working concentration in Kinase Buffer (50 mM HEPES pH 7.5, 0.01% BRIJ-35, 10 mM MgCl2, 1 mM EGTA). The apparent ATP Km was previously determined using a Z′-LYTE assay. The Development Reagent was diluted in Development Buffer.
(§2) The inhibition activities of compounds were determined in biochemical assays using single concentration (1.0 μM) measurements. The results were provided as percent inhibition values. A compound displaying a percent inhibition value of greater 80% was defined as a hit. 99 different tyrosine kinases were used.

AKT2 (PKB beta) = AKT2 (PKB beta) (Homo sapiens, UniProt P31751); conditions: single concentration 1.0 μM, read-out: percent inhibition
Description: as §1, §2

EPHA7 = EPHA7 (Homo sapiens, UniProt Q15375); conditions: single concentration 1.0 μM, read-out: percent inhibition
Description: as §1, §2

SYK = SYK (Homo sapiens, UniProt P43405); conditions: single concentration 1.0 μM, read-out: percent inhibition
Description: as §1, §2

NTRK3 (TRKC) = NTRK3 (TRKC) (Homo sapiens, UniProt Q16288); conditions: single concentration 1.0 μM, read-out: percent inhibition
Description: as §1, §2

FGFR4 = FGFR4 (Homo sapiens, UniProt P22455); conditions: single concentration 1.0 μM, read-out: percent inhibition
Description: as §1, §2

[1] = target: PIK3CA/PIK3R1 (p110 alpha/p85 alpha) (Homo sapiens, UniProt P42336); conditions: read-out: percent inhibition
Description: as §1, §2

ITK = target: T1, ITK (Homo sapiens, UniProt Q08881); conditions: single concentration 1.0 μM, read-out: percent inhibition
T1 sequence (Q08881 1-620): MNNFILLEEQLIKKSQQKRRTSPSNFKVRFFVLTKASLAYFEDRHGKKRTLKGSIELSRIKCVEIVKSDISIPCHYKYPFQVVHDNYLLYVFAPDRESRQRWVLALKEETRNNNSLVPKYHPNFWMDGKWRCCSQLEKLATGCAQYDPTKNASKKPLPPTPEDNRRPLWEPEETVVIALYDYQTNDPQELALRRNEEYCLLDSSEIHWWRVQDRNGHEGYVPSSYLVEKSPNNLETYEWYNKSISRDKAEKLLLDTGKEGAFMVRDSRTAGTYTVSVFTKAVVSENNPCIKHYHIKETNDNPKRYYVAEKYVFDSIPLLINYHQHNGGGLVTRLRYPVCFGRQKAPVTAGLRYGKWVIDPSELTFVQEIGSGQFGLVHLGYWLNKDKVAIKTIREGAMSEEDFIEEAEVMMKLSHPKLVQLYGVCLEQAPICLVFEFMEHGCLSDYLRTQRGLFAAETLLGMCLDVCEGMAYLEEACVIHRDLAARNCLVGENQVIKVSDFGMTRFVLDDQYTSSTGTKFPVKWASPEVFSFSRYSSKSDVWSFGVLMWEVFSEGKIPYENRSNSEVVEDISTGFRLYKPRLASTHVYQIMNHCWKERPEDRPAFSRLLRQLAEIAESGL
Description: as §1, §2

AURKA (Aurora A) = target: T2, AURKA (Aurora A) (Homo sapiens, UniProt O14965); conditions: single concentration 1.0 μM, read-out: percent inhibition
T2 sequence (O14965 1-403): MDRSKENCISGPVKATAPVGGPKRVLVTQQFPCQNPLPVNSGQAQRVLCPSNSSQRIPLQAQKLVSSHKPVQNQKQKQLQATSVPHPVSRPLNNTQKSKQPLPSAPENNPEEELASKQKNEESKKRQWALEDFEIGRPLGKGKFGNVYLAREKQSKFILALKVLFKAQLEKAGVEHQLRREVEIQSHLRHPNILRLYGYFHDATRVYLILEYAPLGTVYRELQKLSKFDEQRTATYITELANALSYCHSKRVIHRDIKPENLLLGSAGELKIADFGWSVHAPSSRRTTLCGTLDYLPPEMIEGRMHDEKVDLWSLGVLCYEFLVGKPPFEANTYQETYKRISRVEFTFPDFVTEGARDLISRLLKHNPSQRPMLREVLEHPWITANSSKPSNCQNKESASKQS
Description: as §1, §2

ALK = ALK (Homo sapiens, UniProt Q9UM73); conditions: single concentration 1.0 μM, read-out: percent inhibition
Description: as §1, §2

MATK (HYL) = target: T3, MATK (HYL) (Homo sapiens, UniProt P42679); conditions: single concentration 1.0 μM, read-out: percent inhibition
T3 sequence (P42679 1-507): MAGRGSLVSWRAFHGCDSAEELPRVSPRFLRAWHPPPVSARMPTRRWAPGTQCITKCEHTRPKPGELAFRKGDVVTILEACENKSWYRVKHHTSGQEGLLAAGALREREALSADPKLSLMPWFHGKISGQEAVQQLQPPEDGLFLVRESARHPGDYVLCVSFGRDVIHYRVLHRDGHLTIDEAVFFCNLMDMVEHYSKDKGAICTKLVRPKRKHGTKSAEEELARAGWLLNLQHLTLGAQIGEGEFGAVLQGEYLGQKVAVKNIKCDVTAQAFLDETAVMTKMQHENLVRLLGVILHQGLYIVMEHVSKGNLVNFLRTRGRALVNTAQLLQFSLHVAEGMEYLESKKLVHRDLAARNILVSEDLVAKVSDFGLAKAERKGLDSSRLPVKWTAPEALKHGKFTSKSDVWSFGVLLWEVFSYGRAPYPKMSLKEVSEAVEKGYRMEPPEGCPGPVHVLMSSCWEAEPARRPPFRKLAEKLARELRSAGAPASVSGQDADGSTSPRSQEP
Description: as §1, §2

[2] = PIK3CA/PIK3R1 (p110 alpha/p85 alpha), single concentration 1.0 μM

Sequence of PIK3CA/PIK3R1 (p110 alpha/p85 alpha) (P42336 whole entry): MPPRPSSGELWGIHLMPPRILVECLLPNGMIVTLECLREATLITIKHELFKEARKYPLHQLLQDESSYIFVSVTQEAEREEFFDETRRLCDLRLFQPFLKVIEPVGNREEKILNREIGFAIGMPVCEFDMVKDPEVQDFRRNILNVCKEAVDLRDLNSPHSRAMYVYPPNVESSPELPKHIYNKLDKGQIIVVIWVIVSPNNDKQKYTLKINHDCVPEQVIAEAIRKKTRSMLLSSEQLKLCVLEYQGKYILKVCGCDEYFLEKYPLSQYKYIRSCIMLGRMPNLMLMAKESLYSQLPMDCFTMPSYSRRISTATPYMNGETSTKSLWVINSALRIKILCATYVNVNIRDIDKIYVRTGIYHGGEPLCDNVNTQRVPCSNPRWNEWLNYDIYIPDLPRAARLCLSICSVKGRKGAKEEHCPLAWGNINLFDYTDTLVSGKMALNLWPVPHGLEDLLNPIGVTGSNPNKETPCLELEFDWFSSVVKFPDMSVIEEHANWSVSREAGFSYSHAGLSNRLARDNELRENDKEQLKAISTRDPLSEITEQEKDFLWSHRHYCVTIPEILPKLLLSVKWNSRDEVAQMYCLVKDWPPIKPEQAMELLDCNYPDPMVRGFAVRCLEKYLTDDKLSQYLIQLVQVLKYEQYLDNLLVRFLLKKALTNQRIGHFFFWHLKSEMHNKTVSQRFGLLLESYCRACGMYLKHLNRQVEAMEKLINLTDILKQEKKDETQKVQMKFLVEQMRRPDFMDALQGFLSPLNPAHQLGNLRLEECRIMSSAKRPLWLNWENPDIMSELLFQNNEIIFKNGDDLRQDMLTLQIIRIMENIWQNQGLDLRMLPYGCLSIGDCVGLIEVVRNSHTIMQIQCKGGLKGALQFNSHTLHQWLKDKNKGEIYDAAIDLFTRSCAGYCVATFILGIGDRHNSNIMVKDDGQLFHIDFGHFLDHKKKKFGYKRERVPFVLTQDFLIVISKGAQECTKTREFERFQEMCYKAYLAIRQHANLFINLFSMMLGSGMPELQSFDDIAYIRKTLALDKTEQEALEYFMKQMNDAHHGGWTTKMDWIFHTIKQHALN
Sequence of PIK3CA/PIK3R1 (p110 alpha/p85 alpha) (P27986 whole entry partner): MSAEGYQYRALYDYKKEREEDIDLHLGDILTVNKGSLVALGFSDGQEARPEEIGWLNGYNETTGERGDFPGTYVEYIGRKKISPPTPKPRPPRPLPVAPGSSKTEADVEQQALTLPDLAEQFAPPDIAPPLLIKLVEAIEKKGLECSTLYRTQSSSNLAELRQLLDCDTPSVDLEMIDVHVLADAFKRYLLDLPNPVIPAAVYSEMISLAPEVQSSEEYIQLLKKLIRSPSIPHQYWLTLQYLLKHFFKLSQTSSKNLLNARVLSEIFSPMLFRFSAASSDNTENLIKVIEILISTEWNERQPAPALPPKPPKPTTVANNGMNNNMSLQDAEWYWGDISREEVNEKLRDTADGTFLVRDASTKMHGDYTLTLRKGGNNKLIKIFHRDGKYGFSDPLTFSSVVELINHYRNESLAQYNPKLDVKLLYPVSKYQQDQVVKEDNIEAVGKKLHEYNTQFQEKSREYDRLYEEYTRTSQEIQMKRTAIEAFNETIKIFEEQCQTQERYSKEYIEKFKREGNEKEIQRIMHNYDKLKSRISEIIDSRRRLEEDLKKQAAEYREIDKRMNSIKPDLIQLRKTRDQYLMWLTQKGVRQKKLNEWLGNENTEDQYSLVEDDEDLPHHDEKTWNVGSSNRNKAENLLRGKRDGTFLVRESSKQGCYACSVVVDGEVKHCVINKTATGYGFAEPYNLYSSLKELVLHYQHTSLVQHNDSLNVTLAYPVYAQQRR
Sequence of FGFR4 (P22455 22-802): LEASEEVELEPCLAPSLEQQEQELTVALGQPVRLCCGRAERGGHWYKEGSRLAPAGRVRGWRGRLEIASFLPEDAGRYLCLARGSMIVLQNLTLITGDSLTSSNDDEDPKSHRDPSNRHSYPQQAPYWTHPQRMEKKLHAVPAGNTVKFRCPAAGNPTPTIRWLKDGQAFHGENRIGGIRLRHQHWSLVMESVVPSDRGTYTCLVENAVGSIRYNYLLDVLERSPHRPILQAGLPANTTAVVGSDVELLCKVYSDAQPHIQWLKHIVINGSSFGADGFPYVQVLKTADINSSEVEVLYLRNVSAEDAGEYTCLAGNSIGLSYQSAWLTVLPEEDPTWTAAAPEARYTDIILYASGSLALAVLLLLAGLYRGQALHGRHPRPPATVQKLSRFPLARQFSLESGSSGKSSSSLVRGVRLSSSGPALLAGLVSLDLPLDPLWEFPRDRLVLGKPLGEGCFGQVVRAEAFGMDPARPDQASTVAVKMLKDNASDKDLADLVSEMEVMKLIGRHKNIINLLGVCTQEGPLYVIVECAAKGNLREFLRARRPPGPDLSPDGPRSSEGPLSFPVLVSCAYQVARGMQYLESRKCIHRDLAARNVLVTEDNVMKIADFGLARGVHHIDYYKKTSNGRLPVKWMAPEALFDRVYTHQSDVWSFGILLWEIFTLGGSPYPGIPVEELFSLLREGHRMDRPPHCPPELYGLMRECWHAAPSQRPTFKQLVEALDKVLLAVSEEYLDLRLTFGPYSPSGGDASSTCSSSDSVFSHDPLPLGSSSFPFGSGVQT
Sequence of LTK (TYK1) (P29376 17-864): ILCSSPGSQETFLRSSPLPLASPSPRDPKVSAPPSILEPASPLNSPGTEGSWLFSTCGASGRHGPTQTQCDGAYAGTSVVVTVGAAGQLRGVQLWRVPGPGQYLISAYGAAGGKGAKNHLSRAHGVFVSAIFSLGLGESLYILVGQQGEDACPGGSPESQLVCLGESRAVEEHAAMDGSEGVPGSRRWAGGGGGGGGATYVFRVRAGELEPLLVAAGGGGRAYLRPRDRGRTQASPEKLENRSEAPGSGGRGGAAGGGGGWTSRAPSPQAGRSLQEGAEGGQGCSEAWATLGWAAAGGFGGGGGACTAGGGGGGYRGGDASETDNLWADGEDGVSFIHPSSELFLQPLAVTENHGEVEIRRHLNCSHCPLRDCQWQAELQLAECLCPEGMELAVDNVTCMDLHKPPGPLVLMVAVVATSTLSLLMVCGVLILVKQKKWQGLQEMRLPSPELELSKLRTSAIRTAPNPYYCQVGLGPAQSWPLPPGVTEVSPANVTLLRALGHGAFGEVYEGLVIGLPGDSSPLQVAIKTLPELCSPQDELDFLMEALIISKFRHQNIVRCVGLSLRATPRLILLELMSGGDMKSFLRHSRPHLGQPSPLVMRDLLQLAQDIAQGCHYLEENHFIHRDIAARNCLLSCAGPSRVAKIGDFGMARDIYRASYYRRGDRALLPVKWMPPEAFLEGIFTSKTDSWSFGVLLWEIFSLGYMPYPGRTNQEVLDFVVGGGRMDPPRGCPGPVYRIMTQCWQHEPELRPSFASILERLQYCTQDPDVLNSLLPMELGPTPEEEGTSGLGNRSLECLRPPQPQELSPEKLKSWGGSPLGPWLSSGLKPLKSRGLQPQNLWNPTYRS
Sequence of ALK (Q9UM73 19-1620): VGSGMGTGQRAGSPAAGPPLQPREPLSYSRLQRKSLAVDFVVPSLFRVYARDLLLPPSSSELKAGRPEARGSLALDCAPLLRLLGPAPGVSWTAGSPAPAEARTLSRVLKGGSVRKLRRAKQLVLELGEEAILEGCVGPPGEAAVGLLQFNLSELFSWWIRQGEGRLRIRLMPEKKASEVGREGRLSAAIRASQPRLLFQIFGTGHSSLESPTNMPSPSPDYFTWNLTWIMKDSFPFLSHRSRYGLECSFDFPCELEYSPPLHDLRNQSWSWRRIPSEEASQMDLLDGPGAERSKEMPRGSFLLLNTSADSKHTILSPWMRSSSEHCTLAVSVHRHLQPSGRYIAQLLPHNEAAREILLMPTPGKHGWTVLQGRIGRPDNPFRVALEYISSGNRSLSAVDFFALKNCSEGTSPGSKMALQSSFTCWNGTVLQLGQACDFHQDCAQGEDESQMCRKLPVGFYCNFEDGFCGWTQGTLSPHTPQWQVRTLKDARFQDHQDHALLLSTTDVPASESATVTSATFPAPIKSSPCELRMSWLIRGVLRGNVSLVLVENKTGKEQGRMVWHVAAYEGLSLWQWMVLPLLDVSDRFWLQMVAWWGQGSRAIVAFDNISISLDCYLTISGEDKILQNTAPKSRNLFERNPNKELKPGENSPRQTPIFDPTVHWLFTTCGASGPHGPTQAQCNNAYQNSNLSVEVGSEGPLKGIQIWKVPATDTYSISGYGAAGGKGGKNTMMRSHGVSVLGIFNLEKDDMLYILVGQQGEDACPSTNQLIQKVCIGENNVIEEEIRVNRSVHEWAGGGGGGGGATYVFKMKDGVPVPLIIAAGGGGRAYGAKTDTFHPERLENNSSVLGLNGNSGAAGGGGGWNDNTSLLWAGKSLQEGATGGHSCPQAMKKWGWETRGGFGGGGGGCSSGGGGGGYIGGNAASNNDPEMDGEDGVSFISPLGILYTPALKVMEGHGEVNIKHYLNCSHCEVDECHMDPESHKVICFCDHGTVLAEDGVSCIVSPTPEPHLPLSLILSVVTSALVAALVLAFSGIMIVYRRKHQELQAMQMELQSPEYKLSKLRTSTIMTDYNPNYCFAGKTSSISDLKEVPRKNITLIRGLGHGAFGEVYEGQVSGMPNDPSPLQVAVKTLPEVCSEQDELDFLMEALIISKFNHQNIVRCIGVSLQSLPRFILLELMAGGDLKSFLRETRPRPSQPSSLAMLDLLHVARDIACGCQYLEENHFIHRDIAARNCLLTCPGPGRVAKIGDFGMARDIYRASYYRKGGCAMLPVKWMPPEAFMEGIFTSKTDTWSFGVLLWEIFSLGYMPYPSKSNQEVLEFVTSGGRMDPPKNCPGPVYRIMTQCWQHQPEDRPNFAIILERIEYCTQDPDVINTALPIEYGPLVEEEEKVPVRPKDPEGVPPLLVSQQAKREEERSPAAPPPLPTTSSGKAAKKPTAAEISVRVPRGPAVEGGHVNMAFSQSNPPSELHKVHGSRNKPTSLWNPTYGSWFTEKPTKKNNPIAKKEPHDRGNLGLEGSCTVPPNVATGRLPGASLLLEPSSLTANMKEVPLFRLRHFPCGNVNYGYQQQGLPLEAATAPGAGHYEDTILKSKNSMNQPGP

Structure (SMILES) | inhibition at 1 µM (LTK (TYK1)) | inhibition at 1 µM (AKT2 (PKB beta)) | inhibition at 1 µM (EPHA7) | inhibition at 1 µM (SYK) | inhibition at 1 µM (NTRK3 (TRKC)) | inhibition at 1 µM (FGFR4) | inhibition at 1 µM [1] | inhibition at 1 µM (ITK) | inhibition at 1 µM (AURKA (Aurora A)) | inhibition at 1 µM (ALK) | inhibition at 1 µM (MATK (HYL)) | inhibition at 1 µM [1, 2]
COc1cc2nccc(Oc3ccc(NC(=O)C4(C(=O)Nc5ccc(F)cc5)CC4)cc3)c2cc1OC [Cabozantinib, reference compound] | 20% | 17% | 106% | 16% | 97% | -2% | 0% | 15% | 55% | 28% | 10% | 
COc1cc2nccc(Oc3ccc(NC(=O)C4(NC(=O)c5ccc(F)cc5)CC4)cc3F)c2cc1OC [Cbo-02, N-(1-((4-((6,7-diMethoxyquinolin-4-yl)oxy)-3-fluorophenyl)carbamoyl)cyclopropyl)-4-fluorobenzamide] | 50% | 10% | 84% | 14% | 58% | 0% |  | 8% | 75% | 20% | 7% | -6%
COc1cc2nccc(Oc3ccc(NC(=O)C4(NC(=O)c5ccc(F)cc5)CC4)cc3F)c2cc1Oc1ccc(N)cc1F [Cbo-10] | 69% | 5% | 98% | 24% | 89% | 1% |  | 25% | 92% | 36% | 5% | 10%
COc1cc2nccc(Oc3ccc(NC(=O)C4(NC(=O)c5ccc(F)cc5)CC4)cc3F)c2cc1Oc1c(F)cc(N)cc1F [Cbo-14] | 79% | 10% | 101% | 27% | 98% | -1% |  | 28% | 89% | 32% | 8% | 3%
COc1cc2nccc(Oc3ccc(NC(=O)C4(C(=O)Nc5ccc(F)cc5)CC4)cc3F)c2cc1Oc1ccc(N)cc1F [Cbo-23] | 55% | 0% | 100% | 15% | 98% | 13% |  | 54% | 55% | 78% | 8% | 4%
